Data reported in article PMC12577588 (2025).

Test system: telo24 DNA (DNA, G4) TTAGGGTTAGGGTTAGGGTTAGGG
Assay: UV-vis titration
Details: K+ 100 mM; 10 mM HEPES pH 7.4, 1 mM Na2EDTA; 5 μM porphyrin; error is SE

Compound: C[n+]1ccc(-c2c3nc(c(-c4cc[n+](C)cc4)c4ccc([nH]4)c(-c4cc[n+](C)cc4)c4nc(c(-c5cc[n+](C)cc5)c5ccc2[nH]5)C=C4)C=C3)cc1
- Kd: 0.93 (0.18) μM
